Data set [1] in a line: LNP size and PDI by dynamic laser light scattering. Particulars: LNP: 50% cationic lipid, 38.5% cholesterol, 10% DSPC, 1.5% DMG-PEG2000; Ffluc mRNA. Format: physicochemical. As to the method: (§1) 1. The cationic lipid (50 mg/mL) prepared in the above examples of the present disclosure, cholesterol (20 mg/mL), DSPC (20 mg/mL) and DMG-PEG2000 (20 mg/mL) were dissolved in ethanol, and the solution was placed in a 55° C. metal thermostatic bath as needed to aid dissolution, to obtain a lipid mixture with the following molar composition: 1.5% DMG-PEG2000, 50% cationic lipid, 38.5% cholesterol, and 10% DSPC.
(§2) 2. The mRNA encoding Ffluc was diluted with 10 mM pH 4.0 citrate buffer to prepare a 0.2 mg/mL mRNA solution.
(§3) 3. The lipid mixture prepared in step 1 was mixed with the mRNA solution prepared in step 2 using a syringe pump with a tee at a total flow rate of 40 mL/min.
(§4) 4. The LNP mixture was collected after the three-way mixing and placed in a dialysis bag with a molecular weight cut-off of 100 KDa.
(§5) 5. The LNP mixture was dialyzed overnight against 50 mM Tris-buffered saline, pH 7.4.
(§6) 6. Sieving, and subsequent measurement of the sieved LNP to measure the PDI of the LNP by dynamic laser light scattering; to measure the mRNA encapsulation efficiency and concentration by Ribogreen assay; and to measure the pKa by TNS-α assay.

The nature of data set [2]: mRNA encapsulation efficiency of LNP by Ribogreen assay. Format: physicochemical. The note with it: LNP: 50% cationic lipid, 38.5% cholesterol, 10% DSPC, 1.5% DMG-PEG2000; Ffluc mRNA. As for the experimental part: as §1, §2, §3, §4, §5, §6
Data set [3] deals with mice. The experiment in a line: In vivo delivery of Ffluc mRNA LNP in mice, intravenous administration, luminescence relative to MC3. On the set-up: species or system mice (female Balb/C). The note with it: fold change in luminescence intensity relative to MC3; 0.06 mg/kg tail vein; 6 h after injection. As to the method: The prepared encapsulation solution was applied to mice in the following manner, and its delivery efficiency in mice was tested. Among them, DLin-MC3-DMA (MC3) was a cationic liposome for delivering small nucleic acids that was approved by the FDA for marketing in 2018, which has high nucleic acid drug delivery efficiency and biosafety, and was usually used as the industry gold standard in the screening process of cationic lipids. In the evaluation of mice experiments, the ratio of nucleic acid delivery efficiency normalized to MC3 was greater than 0.1, which was considered to be a cationic lipid with high delivery efficiency.
1. The LNP solution was diluted with 50 mM TBS, pH 7.4 to a concentration of 0.1 mg/mL mRNA.
2. The mice involved in this study were female Balb/C, weighing 18-22 g, 6-8 weeks old, with 5 mice in each group.
3. The dosing solution was kept at 4° C. prior to injection.
4. Each mice received 0.06 mg/kg via tail vein injection.
5. The mice were injected intraperitoneally with 200 μL of 1.5 mg/mL D-luciferin solution 6 h after injection.
6. The in vivo luminescence images of the mice were obtained using the IVIS system (Aniview).
7. The luminescence intensity of each mice was measured using Aniview software.
8. MC3 lipid nanoparticles were used as a positive control. The in vivo efficacy of each cationic lipid tested was recorded as the fold change in luminescence intensity relative to MC3 (ratio normalized to MC3).

Turning to `CCCCC/C=C\C/C=C\CCCCCCCC(=O)OCC(COC(=O)/C=C(/CCCC)CCCCCC)COC(=O)OCCCN(C)C` (stereo not drawn) [CPL-218, 3-(((Z)-3-butylnon-2-enoyl)oxy)-2-((((3-(dimethylamino)propoxy)carbonyl)oxy)methyl)propyl(9Z,12Z)-octadeca-9,12-dienoate], in data set [1], the PDI came to 0.1194 and the “Size (nm)” value is recorded as 114.4 nm. The “Encapsulation Rate” value in data set [2] turned out to be 87%. In addition, the “In Vivo Efficacy Normalized To Mc3 In Mice (Intravenous Injection)” value in data set [3] is listed as 0.19.
In the case of `CCCCCCCCCC/C(=C/C(=O)OCCCCCN(CCCO)CCCCCOC(=O)/C=C(\CCCCC)CCCCCCCCCC)CCCCC` [CPL-048, ((3-hydroxypropyl)azanediyl)bis(pentane-5,1-diyl) (2E,2′E)-bis(3-pentyltridec-2-enoate)], in data set [1], the PDI came to 0.2409 and the “Size (nm)” value came to 110.1 nm. Also, the “Encapsulation Rate” value in data set [2] is reported as 94%. The “In Vivo Efficacy Normalized To Mc3 In Mice (Intravenous Injection)” value in data set [3] stood at 1.57.
In the same order, the values of `CCCCC/C=C\C/C=C\CCCCCCCC(=O)OCC(COC(=O)/C=C(\CCCCC)CCCCCCCCCC)COC(=O)OCCCN(C)C` (stereo not drawn) [CPL-224, 3-(((3-(dimethylamino)propoxy)carbonyl)oxy)-2-((((E)-3-pentyltridec-2-enoyl)oxy)methyl)propyl(9Z,12Z)-octadeca-9,12-dienoate] are 0.1162, 90.88 nm, 94% and 0.87.
On to `CCCCC/C=C\C/C=C\CCCCCCCC(=O)OCC(COC(=O)/C=C(\CCCCCCC)CCCCCCCCCC)COC(=O)OCCCN(C)C` (stereo not drawn) [CPL-231, 3-(((3-(dimethylamino)propoxy)carbonyl)oxy)-2-((((E)-3-heptyltridec-2-enoyl)oxy)methyl)propyl(9Z,12Z)-octadeca-9,12-dienoate], for which, in data set [1], the PDI amounted to 0.1118 and the “Size (nm)” value is on record as 69.42 nm. Also, in data set [2], the “Encapsulation Rate” value amounted to 95%. Besides, the “In Vivo Efficacy Normalized To Mc3 In Mice (Intravenous Injection)” value in data set [3] was determined as 0.55.
The matching figures for `CCCCC/C=C\C/C=C\CCCCCCCC(=O)OCC(COC(=O)/C=C(\CCCC)CCCCC)COC(=O)OCCCN(C)C` (stereo not drawn) [CPL-221, 3-(((E)-3-butyloct-2-enoyl)oxy)-2-((((3-(dimethylamino)propoxy)carbonyl)oxy)methyl)propyl(9Z,12Z)-octadeca-9,12-dienoate]: 0.0453, 82.01 nm, 96% and 0.44.
The matching figures for `CCCCC/C=C\C/C=C\CCCCCCCC(=O)OCC(COC(=O)C=C(CCCCCCCC)CCCCCCCC)COC(=O)OCCN(C)C` (stereo not drawn) [CPL-210, 3-(((2-(dimethylamino)ethoxy)carbonyl)oxy)-2-(((3-octylundec-2-enoyl)oxy)methyl)propyl(9Z,12Z)-octadeca-9,12-dienoate]: 0.2144, 52.37 nm, 83% and 0.14.
Take `CCCCC/C=C\C/C=C\CCCCCCCC(=O)OCC(COC(=O)/C=C(\CCCCC)CCCCCCCC)COC(=O)OCCC1CCN(C)CC1` (stereo not drawn) [CPL-289, 3-(((2-(1-methylpiperidin-4-yl)ethoxy)carbonyl)oxy)-2-((((E)-3-pentylundec-2-enoyl)oxy)methyl)propyl(9Z,12Z)-octadeca-9,12-dienoate]: in data set [1], the PDI was determined as 0.1371 and the “Size (nm)” value worked out at 83 nm. Further, the “Encapsulation Rate” value in data set [2] stood at 97%.
In the same order, the values of `CCCCC/C=C\C/C=C\CCCCCCCC(=O)OCC(COC(=O)C=C(CCCCCCCCCC)CCCCCCCCCC)COC(=O)OCC(C)(C)CN(C)C` (stereo not drawn) [CPL-322, 3-((3-decyltridec-2-enoyl)oxy)-2-((((3-(dimethylamino)-2,2-dimethylpropoxy)carbonyl)oxy)methyl)propyl(9Z,12Z)-octadeca-9,12-dienoate] are 0.1302, 96.21 nm and 94%.
Take `CCCCCCCCCC/C(=C/C(=O)OCCCCCN(CCCO)CCCCCOC(=O)/C=C(\CCCC)CCCCCCCCCC)CCC` [CPL-1092]: the “In Vivo Efficacy Normalized To Mc3 In Mice (Intravenous Injection)” value in data set [3] is 0.83.
The same measure, in the same setting: the value for “3-((((2-(dimethylamino)ethoxy)carbonyl)oxy)-2-((((E)-3-hexylundec-2-enoyl)oxy)methyl)propyl(97,127)-octadeca-9,12-dienoate [CPL-203]” was 0.23; that for `CCCCC/C=C\C/C=C\CCCCCCCC(=O)OCC(COC(=O)C=C(CCCCCCCCCC)CCCCCCCCCC)COC(=O)OCCCN(C)C` (stereo not drawn) [CPL-234, 3-((3-decyltridec-2-enoyl)oxy)-2-((((3-(dimethylamino)propoxy)carbonyl)oxy)methyl)propyl(9Z,12Z)-octadeca-9,12-dienoate] was 0.96.
On to `CCCCC/C=C\C/C=C\CCCCCCCC(=O)OCC(COC(=O)/C=C(/CCCCCCCC)CCCCCCCCCC)COC(=O)OCCCN1CCN(C)CC1` (stereo not drawn) [CPL-409, 3-(((3-(4-methylpiperazin-1-yl)propoxy)carbonyl)oxy)-2-((((Z)-3-octyltridec-2-enoyl)oxy)methyl)propyl(9Z 12Z)-octadeca-9,12-dienoate], for which, in data set [1], the PDI was 0.1474 and the “Size (nm)” value was 94.97 nm. In addition, the “Encapsulation Rate” value in data set [2] came to 96%.
In the same order, the values of `CCCCC/C=C\C/C=C\CCCCCCCC(=O)OCC(COC(=O)/C=C(\CCCC)CCCCC)COC(=O)OCC(C)(C)CN(C)C` (stereo not drawn) [CPL-309, 3-(((E)-3-butyloct-2-enoyl)oxy)-2-((((3-(dimethylamino)-2,2-dimethylpropoxy)carbonyl)oxy)methyl)propyl(9Z,12Z)-octadeca-9,12-dienoate] are 0.0937, 76.44 nm and 93%.
On to `CCCCC/C=C\C/C=C\CCCCCCCC(=O)OCC(COC(=O)/C=C(\CCCC)CCCCCCC)COC(=O)OCC(C)(C)CN(C)C` (stereo not drawn) [CPL-316, 3-(((E)-3-butyldec-2-enoyl)oxy)-2-((((3-(dimethylamino)-2,2-dimethylpropoxy)carbonyl)oxy)methyl)propyl(9Z,12Z)-octadeca-9,12-dienoate], for which, in data set [1], the PDI came out at 0.1387 and the “Size (nm)” value was determined as 75.82 nm. Besides, the “Encapsulation Rate” value in data set [2] is recorded as 93%.
Regarding `CCCCC/C=C\C/C=C\CCCCCCCC(=O)OCC(COC(=O)/C=C(\CCCCC)CCCCCC)COC(=O)OCCCN1CCN(C)CC1` (stereo not drawn) [CPL-398, 3-(((3-(4-methylpiperazin-1-yl)propoxy)carbonyl)oxy)-2-((((E)-3-pentylnonan-2-enoyl)oxy)methyl)propyl(9Z,12Z)-octadeca-9,12-dienoate], in data set [1], the PDI was determined as 0.0778 and the “Size (nm)” value came to 115.7 nm. In data set [2], the “Encapsulation Rate” value came out at 97%.
For `CCCCC/C=C\C/C=C\CCCCCCCC(=O)OCC(COC(=O)/C=C(\CCCCC)CCCCCCCCCC)COC(=O)OCCC1CCN(C)CC1` (stereo not drawn) [CPL-290], in data set [1], the PDI is listed as 0.1615 and the “Size (nm)” value is 105.5 nm. Moreover, the “Encapsulation Rate” value in data set [2] worked out at 98%.
In the same order, the values of `CCCCC/C=C\C/C=C\CCCCCCCC(=O)OCC(COC(=O)/C=C(\CCC)CCCCCC)COC(=O)OCCC1CCN(C)CC1` (stereo not drawn) [CPL-280, 3-(((2-(1-methylpiperidin-4-yl)ethoxy)carbonyl)oxy)-2-((((E)-3-propylnon-2-enoyl)oxy)methyl)propyl(9Z,12Z)-octadeca-9,12-dienoate] are 0.2607, 119.6 nm and 97%.
In the same order, the values of `CCCCCC/C(=C/C(=O)OCCCCCCCCN(CCO)CCCCCCCCOC(=O)/C=C(\CCCC)CCCCCC)CCCC` [CPL-455-01, ((2-hydroxyethyl)azanediyl)bis(octane-8,1-diyl) (2E,2′E)-bis(3-butylnon-2-enoate)] are 0.1065, 69.76 nm and 85%.
In the same order, the values of `CCCCC/C=C\C/C=C\CCCCCCCC(=O)OCC(COC(=O)/C=C(\CCCCCCC)CCCCCCCC)COC(=O)OCCN(C)C` (stereo not drawn) [CPL-208, 3-(((2-(dimethylamino)ethoxy)carbonyl)oxy)-2-((((E)-3-heptylundec-2-enoyl)oxy)methyl)propyl(9Z,12Z)-octadeca-9,12-dienoate] are 0.2382, 96.3 nm and 95%.

The values above are taken from patent US20250214925A1, “CATIONIC LIPID, LIPOSOME, LIPID NANOPARTICLE, AND USE” (CARCELL BIOPHARMA LTD., priority 2022, published 2025).
